# From patent US10301278B2, “1-(triazin-3-yl/pyridazin-3-yl)-piper(-azine)idine derivatives and compositions therefor for inhibiting the activity of SHP2” (NOVARTIS AG, priority 2014, dated 2019)
# Where two headings read alike, the source gives them in different places.
# Target: SHP2 (Homo sapiens (Human), UniProt Q06124)
# Test: SHP2 allosteric inhibition assay (DiFMUP prompt fluorescence)
# Format: biochemical
# Protocol: SHP2 is allosterically activated through binding of bis-tyrosyl-phorphorylated peptides to its Src Homology 2 (SH2) domains. The latter activation step leads to the release of the auto-inhibitory interface of SHP2, which in turn renders the SHP2 protein tyrosine phosphatase (PTP) active and available for substrate recognition and reaction catalysis. The catalytic activity of SHP2 was monitored using the surrogate substrate DiFMUP in a prompt fluorescence assay format.
# After 30-60 minutes incubation at 25° C., the surrogate substrate DiFMUP (Invitrogen, cat#D6567) was added to the reaction and incubated at 25° C. for 30 minutes. […] The fluorescence signal was monitored using a microplate reader (Envision, Perki-Elmer) using excitation and emission wavelengths of 340 nm and 450 nm, respectively. The inhibitor dose response curves were analyzed using normalized IC50 regression curve fitting with control based normalization.
# [1] = 0.5 nM SHP2 activated with 0.5 μM peptide IRS1_pY1172(dPEG8)pY1222, substrate DiFMUP, 25° C., read-out: IC50
IC50,IC50 [1],SMILES
29 nM,–,"CC1(N)CCN(c2cnc(Sc3cccc(Cl)c3Cl)c(N)n2)CC1 [Example 1, 6-(4-amino-4-methylpiperidin-1-yl)-3-((2,3-dichlorophenyl)thio)pyrazin-2-amine]"
–,1080 nM,CC1(N)CCN(c2cnc(Sc3cc(Cl)ccc3Cl)c(N)n2)CC1 [Example 5]
–,210 nM,CC1(N)CCN(c2cnc(Sc3ccc(Cl)cc3Cl)c(N)n2)CC1 [Example 6]
–,13700 nM,COc1ccc(Cl)c(Sc2ncc(N3CCC(C)(N)CC3)nc2N)c1 [Example 7]
–,64400 nM,CC1(N)CCN(c2cnc(Oc3cccc(Cl)c3Cl)c(N)n2)CC1 [Example 8]
–,307 nM,"CC1(N)CCN(c2cnc(Sc3cc(O)ccc3Cl)c(N)n2)CC1 [Example 9, 3-((3-amino-5-(4-amino-4-methylpiperidin-1-yl)pyrazin-2-yl)thio)-4-chlorophenol]"
–,56 nM,"COc1cccc(Sc2ncc(N3CCC(C)(N)CC3)nc2N)c1Cl [Example 10, 6-(4-amino-4-methylpiperidin-1-yl)-3-((2-chloro-3-methoxyphenyl)thio)pyrazin-2-amine]"
–,257 nM,CC1(N)CCN(c2cnc(Sc3cccc(NC(=O)c4ccc5ccccc5c4)c3Cl)c(N)n2)CC1 [Example 13]
–,266 nM,CC1(N)CCN(c2nnc(Sc3ccccc3Cl)c(N)n2)CC1 [Example 15]
–,22 nM,CC1(CN)CCN(c2cnc(Sc3cccc(N)c3Cl)c(N)n2)CC1 [Example 20]
–,46 nM,CC1(N)CCN(c2cnc(Sc3cccc(N)c3C(F)(F)F)c(N)n2)CC1 [Example 21]
–,44 nM,CC1(N)CCN(c2cnc(Sc3ccc(Br)cc3Cl)c(N)n2)CC1 [Example 22]
–,51 nM,CC1(N)CCN(c2cnc(Sc3ccc(F)cc3Cl)c(N)n2)CC1 [Example 23]
–,49 nM,C[C@@]1(N)CCN(c2cnc(Sc3cccc(Cl)c3Cl)c(N)n2)C[C@H]1O [Example 24]
–,67 nM,CC1(N)CCN(c2cnc(Sc3ccc(F)cc3C(F)(F)F)c(N)n2)CC1 [Example 26]
–,54 nM,"NCC1(c2cccnc2)CCN(c2cnc(Sc3cccc(Cl)c3Cl)c(N)n2)CC1 [Example 28, 6-(4-(aminomethyl)-4-(pyridin-3-yl)piperidin-1-yl)-3-((2,3-dichlorophenyl)thio)pyrazin-2-amine]"
–,66 nM,CC1(N)CCN(c2cnc(Sc3cccnc3C(F)(F)F)c(N)n2)CC1 [Example 30]
–,195 nM,Nc1cccc(Sc2ncc(N3CCC(N)(CO)CC3)nc2N)c1Cl [Example 32]

IC50,IC50 [1],SMILES
–,19 nM,"CC1(CN)CCN(c2nc(N)c(Sc3cccc(Cl)c3Cl)nc2C(N)=O)CC1 [Example 33, 5-amino-3-(4-(aminomethyl)-4-methylpiperidin-1-yl)-6-((2,3-dichlorophenyl)thio)pyrazine-2-carboxamide]"
–,109 nM,CC1(CN)CCN(c2nc(N)c(Sc3cccnc3C(F)(F)F)nc2C(N)=O)CC1 [Example 35]
–,82 nM,CC1(N)CCN(c2cnc(Sc3ccnc(C(F)(F)F)c3Cl)c(N)n2)CC1 [Example 37]
–,26 nM,"CC1(CN)CCN(c2cnc(Sc3cccnc3Cl)c(N)n2)CC1 [Example 39, 6-(4-(aminomethyl)-4-methylpiperidin-1-yl)-3-((2-chloropyridin-3-yl)thio)pyrazin-2-amine]"
–,23 nM,"CC1(CN)CCN(c2cnc(Sc3ccnc(N)c3Cl)c(N)n2)CC1 [Example 42, 3-((2-amino-3-chloropyridin-4-yl)thio)-6-(4-(aminomethyl)-4-methylpiperidin-1-yl)pyrazin-2-amine]"
–,14 nM,"CC1(CN)CCN(c2cnc(Sc3ccnc(Cl)c3Cl)c(N)n2)CC1 [Example 43, 6-(4-(aminomethyl)-4-methylpiperidin-1-yl)-3-((2,3-dichloropyridin-4-yl)thio)pyrazin-2-amine]"
–,271 nM,"NCC1(F)CCN(c2cnc(Sc3cccc(N)c3Cl)c(N)n2)CC1 [Example 44, 3-((3-amino-2-chlorophenyl)thio)-6-(4-(aminomethyl)-4-fluoropiperidin-1-yl)pyrazin-2-amine]"
–,351 nM,CC1(CN)CCN(c2cnc(Sc3cccnc3C(F)(F)F)c(N)c2)CC1 [Example 45]
–,459 nM,NCC1CCCN(c2cnc(Sc3cccnc3C(F)(F)F)c(N)n2)C1 (stereo not drawn) [Example 46]
–,382 nM,NCC1(O)CCN(c2cnc(Sc3cccc(N)c3Cl)c(N)n2)CC1 [Example 47]
–,177 nM,CC1(CN)CCN(c2cnc(Sc3ccncc3F)c(N)n2)CC1 [Example 48]
–,100 nM,CC1(CN)CCN(c2cnc(Sc3ccnc(Cl)c3Cl)c(N)n2)CC1 [Example 49]
–,59 nM,CCC1(CN)CCN(c2cnc(Sc3ccnc(N)c3Cl)c(N)n2)CC1 [Example 50]
–,17 nM,CCCC1(CN)CCN(c2cnc(Sc3ccnc(N)c3Cl)c(N)n2)CC1 [Example 51]
–,62 nM,"Nc1nc(N2CCC(N)(CO)CC2)cnc1Sc1ccnc(Cl)c1Cl [Example 52, (4-amino-1-(6-amino-5-((2,3-dichloropyridin-4-yl)thio)pyrazin-2-yl)piperidin-4-yl)methanol]"
–,315 nM,Nc1nc(N2CCC(N)(CO)CC2)cnc1Sc1ccnc(N)c1Cl [Example 53]
–,170 nM,Nc1nc(N2CCC(N)(CO)CC2)cnc1Sc1cccnc1C(F)(F)F [Example 54]
–,17.7 nM,CC1(CN)CCN(c2cnc(Sc3cc(N)nc(Cl)c3Cl)c(N)n2)CC1 [Example 55]

SMILES,IC50,IC50 [1]
CC1(N)CCN(c2cnc(Sc3ccccc3Cl)c(N)n2)CC1 [Example 2],–,70 nM
"CC1(N)CCN(c2cnc(Sc3ccccc3C(F)(F)F)c(N)n2)CC1 [Example 4, 6-(4-amino-4-methylpiperidin-1-yl)-3-((2-(trifluoromethyl)phenyl)thio)pyrazin-2-amine]",–,59 nM
"CC1(N)CCN(c2nnc(Sc3cccc(Cl)c3Cl)c(N)n2)CC1 [Example 14, 3-(4-amino-4-methylpiperidin-1-yl)-6-((2,3-dichlorophenyl)thio)-1,2,4-triazin-5-amine]",–,143 nM
"CC1(N)CCN(c2cnc(Sc3ccncc3Cl)c(N)n2)CC1 [Example 36, 6-(4-amino-4-methylpiperidin-1-yl)-3-((3-chloropyridin-4-yl)thio)pyrazin-2-amine]",–,76 nM
"CC1(N)CCN(c2cnc(Sc3ccc(-c4nn[nH]n4)cc3Cl)c(N)n2)CC1 [Example 38, 6-(4-amino-4-methylpiperidin-1-yl)-3-((2-chloro-4-(2H-tetrazol-5-yl)phenyl)thio)pyrazin-2-amine]",–,23 nM
"NCC1(c2cscn2)CCN(c2cnc(Sc3cccnc3C(F)(F)F)c(N)n2)CC1 [Example 40, 6-(4-(aminomethyl)-4-(thiazol-4-yl)piperidin-1-yl)-3-((2-(trifluoromethyl)pyridin-3-yl)thio)pyrazin-2-amine]",–,79 nM
